Experimental data as given in ChEMBL document CHEMBL1201862, “PubChem BioAssay data set” (2004).
Calls of active or inactive are those of the source.

What was measured:
[1] = cAMP pathway inhibition in counterscreen cell line – TR-FRET cAMP detection, counter-screen for MC4R biased antagonist project, dose response (AID 602305); type: functional, cell-based;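 further: U2OS cells stimulated with forskolin near its EC80 as the cAMP inducer; potency is for inhibition of forskolin-stimulated cAMP signaling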
[2] = biological target: Melanocortin receptor 4 (Homo sapiens, UniProt P32245); experiment: inhibitors of MC4R cAMP signaling – cell-based, TR-FRET, biased antagonists, dose response (AID 602298); type: functional;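 further: antagonist potency against agonist-stimulated cAMP production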
Melanocortin receptor 4, sequence (P32245 whole entry): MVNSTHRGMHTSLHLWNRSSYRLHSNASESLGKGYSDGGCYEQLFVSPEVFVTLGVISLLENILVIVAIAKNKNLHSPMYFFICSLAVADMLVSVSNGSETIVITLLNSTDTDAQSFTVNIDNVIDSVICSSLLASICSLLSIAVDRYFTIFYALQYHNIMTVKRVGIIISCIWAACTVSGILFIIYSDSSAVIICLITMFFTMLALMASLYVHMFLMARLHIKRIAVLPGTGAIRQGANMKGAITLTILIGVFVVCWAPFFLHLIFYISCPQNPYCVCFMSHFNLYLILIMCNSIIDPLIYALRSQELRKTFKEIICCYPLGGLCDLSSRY

[3] = biological target: MAP kinase-interacting serine/threonine-protein kinase 2 (Homo sapiens, UniProt Q9HBH9); type: functional
[4] = biological target: Mitogen-activated protein kinase kinase kinase kinase 4 (Homo sapiens, UniProt O95819); type: functional
[5] = biological target: Glycogen synthase kinase-3 beta (Homo sapiens, UniProt P49841); type: functional;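 further: value comes from a broad kinome profiling panel, with GSK3B as the panel member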
Glycogen synthase kinase-3 beta, sequence (P49841 whole entry): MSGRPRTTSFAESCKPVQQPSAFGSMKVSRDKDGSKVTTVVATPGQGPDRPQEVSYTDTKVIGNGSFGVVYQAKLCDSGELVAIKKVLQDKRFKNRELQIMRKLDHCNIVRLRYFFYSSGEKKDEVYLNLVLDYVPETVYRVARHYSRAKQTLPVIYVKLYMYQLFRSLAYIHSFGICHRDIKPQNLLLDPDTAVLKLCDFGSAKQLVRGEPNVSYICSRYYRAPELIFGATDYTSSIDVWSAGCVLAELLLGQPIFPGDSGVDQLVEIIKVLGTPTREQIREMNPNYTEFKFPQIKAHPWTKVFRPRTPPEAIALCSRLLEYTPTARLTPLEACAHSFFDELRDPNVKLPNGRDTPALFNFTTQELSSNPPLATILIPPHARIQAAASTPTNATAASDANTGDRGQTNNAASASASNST

[6] = biological target: Homeodomain-interacting protein kinase 2 (Homo sapiens, UniProt Q9H2X6); type: functional;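 further: measured within a kinome-wide kinase profiling panel, HIPK2 being one panel member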
[7] = biological target: Cell division cycle 7-related protein kinase (Homo sapiens, UniProt O00311); type: functional;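 further: value obtained from a kinome-wide kinase panel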
Cell division cycle 7-related protein kinase, sequence (O00311 whole entry): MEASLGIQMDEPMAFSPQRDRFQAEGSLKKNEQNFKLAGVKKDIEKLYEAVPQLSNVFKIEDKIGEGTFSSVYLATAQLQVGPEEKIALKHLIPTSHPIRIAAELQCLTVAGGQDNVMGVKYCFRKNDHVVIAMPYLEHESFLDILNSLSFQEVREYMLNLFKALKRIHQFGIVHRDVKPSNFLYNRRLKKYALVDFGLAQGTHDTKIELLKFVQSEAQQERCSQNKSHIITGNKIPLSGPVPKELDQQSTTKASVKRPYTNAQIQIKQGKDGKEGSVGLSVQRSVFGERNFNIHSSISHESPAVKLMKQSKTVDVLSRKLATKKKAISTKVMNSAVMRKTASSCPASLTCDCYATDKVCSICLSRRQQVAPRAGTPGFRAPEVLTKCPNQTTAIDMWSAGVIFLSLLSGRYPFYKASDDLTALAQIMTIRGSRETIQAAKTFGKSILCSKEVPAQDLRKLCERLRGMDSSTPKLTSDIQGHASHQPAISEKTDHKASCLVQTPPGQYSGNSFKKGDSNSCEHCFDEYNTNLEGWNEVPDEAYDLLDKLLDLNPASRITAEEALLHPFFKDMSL

[8] = biological target: Serine/threonine-protein kinase pim-1 (Homo sapiens, UniProt P11309); type: functional
[9] = biological target: Interleukin-1 receptor-associated kinase 4 (Homo sapiens, UniProt Q9NWZ3); type: functional
Interleukin-1 receptor-associated kinase 4, sequence (Q9NWZ3 whole entry): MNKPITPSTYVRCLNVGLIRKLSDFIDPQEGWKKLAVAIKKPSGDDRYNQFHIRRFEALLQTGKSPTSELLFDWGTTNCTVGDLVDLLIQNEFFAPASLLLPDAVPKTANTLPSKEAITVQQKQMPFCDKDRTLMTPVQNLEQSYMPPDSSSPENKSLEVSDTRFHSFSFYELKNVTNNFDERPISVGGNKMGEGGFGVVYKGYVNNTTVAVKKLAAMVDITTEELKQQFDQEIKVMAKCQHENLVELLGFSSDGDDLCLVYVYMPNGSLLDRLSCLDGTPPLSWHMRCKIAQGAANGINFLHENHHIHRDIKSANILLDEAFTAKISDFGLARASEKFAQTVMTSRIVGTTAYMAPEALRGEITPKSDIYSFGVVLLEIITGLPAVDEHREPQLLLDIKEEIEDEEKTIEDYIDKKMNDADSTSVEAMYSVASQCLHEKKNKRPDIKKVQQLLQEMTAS

[10] = biological target: Cyclin-dependent kinase 2 (Homo sapiens, UniProt P24941); type: functional;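 further: CDK2 measured as one member of a broad kinome profiling panel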
[11] = biological target: Dual specificity protein kinase CLK4 (Homo sapiens, UniProt Q9HAZ1); type: functional
Dual specificity protein kinase CLK4, sequence (Q9HAZ1 whole entry): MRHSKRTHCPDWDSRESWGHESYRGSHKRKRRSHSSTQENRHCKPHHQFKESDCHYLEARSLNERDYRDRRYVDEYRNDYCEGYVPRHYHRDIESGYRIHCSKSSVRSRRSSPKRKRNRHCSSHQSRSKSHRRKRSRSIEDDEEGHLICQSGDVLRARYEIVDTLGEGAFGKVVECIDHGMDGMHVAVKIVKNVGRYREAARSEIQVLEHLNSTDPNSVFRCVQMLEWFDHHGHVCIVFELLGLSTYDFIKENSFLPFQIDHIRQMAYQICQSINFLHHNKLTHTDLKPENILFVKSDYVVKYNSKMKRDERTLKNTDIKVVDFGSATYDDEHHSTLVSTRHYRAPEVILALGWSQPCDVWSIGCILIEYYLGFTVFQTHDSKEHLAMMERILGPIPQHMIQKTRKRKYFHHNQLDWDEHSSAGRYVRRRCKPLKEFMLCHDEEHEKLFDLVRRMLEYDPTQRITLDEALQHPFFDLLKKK

[12] = biological target: cAMP-dependent protein kinase catalytic subunit alpha (Homo sapiens, UniProt P17612); type: functional
[13] = biological target: Vascular endothelial growth factor receptor 2 (Homo sapiens, UniProt P35968); type: functional
Vascular endothelial growth factor receptor 2, sequence (P35968 whole entry): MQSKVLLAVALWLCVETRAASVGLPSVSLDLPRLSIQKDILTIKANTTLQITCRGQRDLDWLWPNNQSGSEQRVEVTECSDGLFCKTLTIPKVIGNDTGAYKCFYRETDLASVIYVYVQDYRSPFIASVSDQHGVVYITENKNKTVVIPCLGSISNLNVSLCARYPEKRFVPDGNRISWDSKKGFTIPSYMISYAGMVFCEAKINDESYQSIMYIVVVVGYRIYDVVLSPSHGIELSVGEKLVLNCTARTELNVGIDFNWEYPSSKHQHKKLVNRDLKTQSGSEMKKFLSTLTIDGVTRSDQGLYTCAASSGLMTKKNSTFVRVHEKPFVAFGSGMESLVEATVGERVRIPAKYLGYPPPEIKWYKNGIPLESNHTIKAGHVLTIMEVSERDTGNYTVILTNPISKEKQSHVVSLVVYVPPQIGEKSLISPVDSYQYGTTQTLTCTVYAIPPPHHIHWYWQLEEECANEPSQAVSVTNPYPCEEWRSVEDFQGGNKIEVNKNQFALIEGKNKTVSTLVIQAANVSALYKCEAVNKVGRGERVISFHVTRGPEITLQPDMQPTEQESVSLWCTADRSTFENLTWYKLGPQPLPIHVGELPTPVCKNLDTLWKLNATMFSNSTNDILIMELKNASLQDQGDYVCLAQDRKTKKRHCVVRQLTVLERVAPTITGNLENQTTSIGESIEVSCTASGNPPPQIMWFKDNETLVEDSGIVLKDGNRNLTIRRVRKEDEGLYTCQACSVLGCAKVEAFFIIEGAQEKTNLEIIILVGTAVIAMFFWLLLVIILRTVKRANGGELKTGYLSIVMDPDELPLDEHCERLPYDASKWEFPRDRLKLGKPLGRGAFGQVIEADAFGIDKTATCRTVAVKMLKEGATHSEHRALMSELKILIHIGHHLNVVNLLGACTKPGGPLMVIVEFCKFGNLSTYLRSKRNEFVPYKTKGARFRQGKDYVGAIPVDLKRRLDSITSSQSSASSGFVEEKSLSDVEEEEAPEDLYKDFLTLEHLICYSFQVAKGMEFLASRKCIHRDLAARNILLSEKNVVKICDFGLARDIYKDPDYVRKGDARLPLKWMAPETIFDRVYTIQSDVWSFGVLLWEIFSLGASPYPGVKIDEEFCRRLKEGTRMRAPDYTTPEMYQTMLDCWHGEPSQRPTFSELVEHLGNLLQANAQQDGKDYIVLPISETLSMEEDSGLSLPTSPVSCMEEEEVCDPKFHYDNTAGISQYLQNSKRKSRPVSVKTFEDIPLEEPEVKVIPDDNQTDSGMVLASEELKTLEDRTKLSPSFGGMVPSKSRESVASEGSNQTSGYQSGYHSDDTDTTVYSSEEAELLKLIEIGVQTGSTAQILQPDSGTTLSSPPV

[14] = biological target: Aurora kinase B (Homo sapiens, UniProt Q96GD4); type: functional
[15] = biological target: Aurora kinase A (Homo sapiens, UniProt O14965); type: functional;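 further: value from the Navigating the Kinome kinase panel profiling, panel entry STK6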
Aurora kinase A, sequence (O14965 whole entry): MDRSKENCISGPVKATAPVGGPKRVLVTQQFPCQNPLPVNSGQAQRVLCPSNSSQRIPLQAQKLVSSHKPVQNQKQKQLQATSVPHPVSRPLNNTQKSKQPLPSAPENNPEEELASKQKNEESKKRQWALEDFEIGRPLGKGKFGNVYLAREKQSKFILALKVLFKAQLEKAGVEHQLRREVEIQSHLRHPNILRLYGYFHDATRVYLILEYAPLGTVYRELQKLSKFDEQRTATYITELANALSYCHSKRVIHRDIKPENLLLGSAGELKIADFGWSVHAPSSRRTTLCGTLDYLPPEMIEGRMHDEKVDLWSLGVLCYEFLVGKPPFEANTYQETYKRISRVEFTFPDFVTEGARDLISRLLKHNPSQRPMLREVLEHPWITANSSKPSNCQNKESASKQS

[16] = biological target: Melanin-concentrating hormone receptor 1 (Homo sapiens, UniProt Q99705); experiment: Late-stage fluorescence-based counterscreen for antagonists of the G-protein coupled receptor 7 (GPR7): cell-based dose response assay to identify antagonists of the melanin-concentrating hormone receptor 1 (MCHR1) Set 5.; type: functional
Melanin-concentrating hormone receptor 1, sequence (Q99705 whole entry): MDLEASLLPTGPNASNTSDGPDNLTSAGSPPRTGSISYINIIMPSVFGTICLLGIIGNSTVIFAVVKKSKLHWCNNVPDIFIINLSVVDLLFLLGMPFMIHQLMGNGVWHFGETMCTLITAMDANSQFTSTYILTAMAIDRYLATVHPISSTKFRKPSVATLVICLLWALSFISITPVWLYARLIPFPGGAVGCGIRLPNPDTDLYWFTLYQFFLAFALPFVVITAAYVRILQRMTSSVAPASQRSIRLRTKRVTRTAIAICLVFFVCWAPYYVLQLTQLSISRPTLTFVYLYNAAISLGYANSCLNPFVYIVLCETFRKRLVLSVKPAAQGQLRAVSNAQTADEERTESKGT

[17] = biological target: Neuropeptides B/W receptor type 1 (Homo sapiens, UniProt P48145); experiment: human NPBW1 receptor blockade, IC50 – cell-based, fluorescence, dose response, set 5, late-stage follow-up (AID 588566); type: functional
Neuropeptides B/W receptor type 1, sequence (P48145 whole entry): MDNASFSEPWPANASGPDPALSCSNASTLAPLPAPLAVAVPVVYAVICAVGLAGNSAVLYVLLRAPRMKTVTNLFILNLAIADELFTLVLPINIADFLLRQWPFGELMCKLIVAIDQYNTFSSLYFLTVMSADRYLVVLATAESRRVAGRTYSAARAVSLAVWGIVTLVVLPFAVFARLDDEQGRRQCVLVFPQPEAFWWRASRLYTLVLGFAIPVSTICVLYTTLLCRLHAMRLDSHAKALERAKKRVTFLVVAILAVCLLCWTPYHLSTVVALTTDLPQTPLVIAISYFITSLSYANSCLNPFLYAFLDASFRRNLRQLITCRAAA

COc1cc(C(=S)N2CCOCC2)ccc1OC(=O)c1ccc([N+](=O)[O-])cc1[N+](=O)[O-]
IC50 [1]: > 64.6 µM (inactive)
IC50 [2]: > 64.6 µM (inactive)

NC1CCCCC1Nc1nccc(Nc2ccccc2C(=O)O)n1 (configuration not stated)
Ki [3]: > 10 µM (inactive)
Ki [4]: > 10 µM (inactive)
Ki [5]: 6.31 µM (active)
Ki [6]: > 3.16 µM (inactive)
Ki [7]: 0.0316 µM (active)
Ki [8]: 2 µM (active)
Ki [9]: > 10 µM (inactive)
Ki [10]: > 7.94 µM (inactive)
Ki [11]: > 10 µM (inactive)
Ki [12]: > 7.94 µM (inactive)

O=S(=O)(Nc1ccc2c(c1)C(=NO)c1ccccc1-2)c1cccc(F)c1
Ki [13]: 3.98 µM (active)
Ki [14]: 0.00631 µM (active)
Ki [15]: 0.501 µM (active)

O=c1c(Oc2ccc3c(c2)OCO3)c(Cl)cnn1Cc1cccc2ccccc12
IC50 [16]: 11.2 µM (inactive)
IC50 [17]: 0.368 µM (active)
